Data published in US20030144345A1, “Treatment of metabolic diseases with soraphen derivatives” (priority 2001, published 2003).
Like-named read-outs stand apart in the source and are kept apart here.

Columns and labels:
[1] = molecular target: T1, human ACCβ enzyme (Homo sapiens, UniProt O00763); assay: Human ACCβ enzyme activity / inhibition assay (radiometric); format: biochemical; conditions: for IC50: purified recombinant human ACCβ, saturating substrate concentrations, read-out: IC50 against purified ACCβ enzyme; for Effect on K0.5 of K-citrate / Effect on Vmax of the ACC enzyme reaction: titration of compound at 0.5, 1 and 2 times IC50
T1 construct: The cloning of the full length human muscle-type ACCβ cDNA and expression in HEK293 cells; made in house; host or cells: HEK293 cells (ATCC CRL-1573), plasmid pRF33D
Protocol: The cloning of the full length human muscle-type ACCβ cDNA and expression in HEK293 cells (ATCC, #CRL-1573) was performed as follows. The ACCβ cDNA was amplified by the polymerase chain reaction (PCR) and was cloned using standard recombinant DNA techniques. The PCR reaction was performed with the Expand Long Template PCR System (Roche Molecular Biochemicals, #1 681 8340) and 0.5 ng of cDNA from human skeletal muscle as template. The primers used for PCR amplification were designed on the basis of the published sequence of the human ACCβ cDNA isolated from a human liver cDNA library (Abul-Elheiga et al. J. Biol Chem. 272, 10669-10677, 1997). The sequence of the forward primer ACCB1 was 5′-[…]-3′; it includes a NheI restriction cleavage site for subcloning and a Kozak translation initiation consensus sequence preceding the ATG start codon. The sequence of the reverse primer ACCB8 was 5′-[…]-3′; it includes a stop codon and a XhoI restriction cleavage site for subcloning. The amplified DNA fragment of approximately 7.4 kb was cloned into a mammalian expression vector. The resulting plasmid isolates, pRF33A, B, C, D, and E were individually transfected in human embryonic kidney 293 cells (HEK293) using a standard lipid transfection method. Cell extracts of transfected cells were prepared in a lysis buffer containing 0.4 mg/ml digitonin and enzyme activity was determined using a radiometric ACC activity assay as described below. Plasmid pRF33D gave the highest activity and was chosen for large scale transfections of HEK293 cells and enzyme purification.
Since ACC enzyme activities in crude cell lysates were very low, enrichment of ACCβ enzyme expressed in HEK293 cells was achieved by a single anion exchange chromatography step. Cell lysates were run over a 5 ml Econo Pac High Q column (Bio-Rad, #732-0027). Bound proteins were eluted by a gradient of NaCl from 0 to 1 M in 50 mM Tris-HCl, pH 7.5, 1 mM DTT, 5% glycerol. Fractions containing high ACCβ enzyme activity were pooled and stored at −20° C.
Standard ACCβ enzyme assays, in a total volume of 100 μl, contained 50 mM HEPES-KOH, pH 7.5, 10 mM K-citrate, 10 mM MgSO4, 1 mM ATP, 0.1 mM DTT, 2% DMSO, 0.1 mg/ml fatty acid-free BSA, 0.2 mM acetyl-CoA, 2 mM KHCO3, 0.2 mM [^14C]NaHCO3 (50-60 mCi/mmol) and cell lysate or purified ACCβ enzyme. Reactions were incubated at 37° C. for 45 min. and stopped by the addition of 50 μl of 2 N HCl. Terminated reactions were incubated at 50° C. over night to evaporate non-incorporated [^14C]NaHCO3. [^14C]-labeled malonyl-CoA reaction product was quantitated by liquid scintillation counting after the addition of 20 μl of Microscint 20 (Canberra Packard, #6013621) on a TopCount NXT microplate scintillation counter (Canberra Packard).
Inhibition of ACCβ activity was determined at saturating substrate concentrations with two-fold serial dilutions of test compounds spanning a concentration range of at least two log units. IC50 values were calculated with the GraFit software (Erithacus Software Ltd.). Kinetic parameters (Km, Vmax and K0.5) were determined by varying one substrate (or allosteric effector) in a two-fold serial dilution over a concentration range of at least two log units while keeping all other substrates at constant saturating concentrations. Fitting to the Michaelis-Menten equation (for calculation of Km of substrates) and fitting to the Hill equation (for calculation of K0.5of the allosteric activator K-citrate) was done with the GraFit software. To determine the mode of action of Soraphens, determinations of Km for ATP and acetyl-CoA and of K0.5 for K-citrate were repeated in the absence and in the presence of the three different Soraphens at 0.5, 1 and 2 times their IC50 and the data were fitted to the equation for non-competitive inhibition with the GraFit software.

[2] = test system: HepG2 cells; assay: Fatty acid (palmitate) oxidation assay with human liver hepatoma cells HepG2; format: cell-based; conditions: for Stimulation of palmitate / fatty acid oxidation (in words): HepG2
Protocol: For routine passaging, HepG2 cells (American Type Culture Collection, ATCC) were grown in T75 flasks (Falcon, #353136) in 15 ml of Dulbecco's modified Eagle medium (DMEM, Sigma, #D5796), containing 10% heat inactivated fetal bovine serum (FBS, Summit Biotechnology, #S-100-05) and 1% Penicillin/Streptomycin (Sigma, #P4333). […] The cells were passaged once per week by trypsinization and an additional change of medium was done after 3 to 4 days after passaging.

[3] = test system: differentiated L6 cells;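 note: differentiated rat L6 myotubes fed [14C]-palmitate, with oxidation read as 14CO2 trapped on filters and counted by liquid scintillation after 3 to 8 h at 37 °C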
Protocol: (§1) Labeling medium to assay oxidation of fatty acids was composed of glucose-deficient DMEM containing 3.7 g/l NaHCO3, 25 mM HEPES-NaOH, 0.5% fatty acid-free bovine serum albumin (BSA), 0.1% ethanol, 0.5% DMSO (or test compounds dissolved in DMSO), 5 mM D-glucose, and 16 μM unlabeled palmitate plus 0.25 μM [U-^14C]palmitate (approx. 800 mCi/mmol). After the addition of labeling medium, the cell culture plates were sealed air tight with self adhesive Super Sealing Film (Life Systems Design, #02-2796-3001). Before sealing, twelve 1 cm^2 squares of filter paper (Schleicher & Schuell, #GB004) pretreated with 50 μl of highly basic tissue solubilizer solution NCSII (Amersham Pharmacia, #NNCS-502) were attached to the lower side of the sealing film. Upon sealing of the tissue culture plates, the filters were positioned in the center above each well, and served to capture the evolving ^14CO2 that was produced by the cells in each individual well. After an incubation between 3 to 8 hours at 37° C., the filters were removed from the sealing film and the captured ^14CO2 was quantitated by liquid scintillation counting with 2 ml of scintillation cocktail BCS-NA (Amersham Pharmacia, #NBCS204) in a Tri-Carb liquid scintillation counter (Canberra Packard).
(§2) Cultivation of the differentiating rat muscle cell line L6 for fatty acid oxidation assays was performed as follows. For routine passaging, L6 cells (ATCC) were grown in T75 flasks in 15 ml of MEM Alpha medium (Gibco BRL Life Technologies, #22571-038), containing 10% heat inactivated FBS and 1% antibiotic/antimycotic solution (Gibco BRL Life Technologies, #15240-062). Incubation was done at 37° C. in a humid atmosphere containing 5% CO2. The cells were passaged twice per week by trypsinization.
(§3) For fatty acid oxidation assays, each well of a 12-well tissue culture plate was seeded with 2 to 5×10^4 cells in 1 ml of MEM Alpha, 10% FBS, 1% antibiotic/antimycotic solution. After 3 days, medium was exchanged by 1 ml of the same, fresh medium. After 5 days, medium was exchanged again, this time by 1 ml of medium containing 2% FBS, 1% antibiotic/antimycotic solution. After 7 days, the cells were fully differentiated and formed large multinucleated myotubes. At this stage, the medium was replaced by 1 ml of glucose-deficient DMEM supplemented with 3.7 g/l NaHCO3 and 25 mM HEPES-NaOH followed by a starvation period of 2 to 6 hours at 37° C. […] The compounds were tested at three different concentrations (2, 0.2 and 0.02 μM) on differentiated L6 cells.

[4] = test system: differentiated L6 cells; assay: Fatty acid (palmitate) oxidation assay with differentiated rat L6 muscle cells;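 note: differentiated rat L6 myotubes fed [14C]-palmitate, with oxidation read as 14CO2 trapped on filters and counted by liquid scintillation after 3 to 8 h at 37 °C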
Protocol: as §1, §2, §3

T1 sequence (O00763 whole entry): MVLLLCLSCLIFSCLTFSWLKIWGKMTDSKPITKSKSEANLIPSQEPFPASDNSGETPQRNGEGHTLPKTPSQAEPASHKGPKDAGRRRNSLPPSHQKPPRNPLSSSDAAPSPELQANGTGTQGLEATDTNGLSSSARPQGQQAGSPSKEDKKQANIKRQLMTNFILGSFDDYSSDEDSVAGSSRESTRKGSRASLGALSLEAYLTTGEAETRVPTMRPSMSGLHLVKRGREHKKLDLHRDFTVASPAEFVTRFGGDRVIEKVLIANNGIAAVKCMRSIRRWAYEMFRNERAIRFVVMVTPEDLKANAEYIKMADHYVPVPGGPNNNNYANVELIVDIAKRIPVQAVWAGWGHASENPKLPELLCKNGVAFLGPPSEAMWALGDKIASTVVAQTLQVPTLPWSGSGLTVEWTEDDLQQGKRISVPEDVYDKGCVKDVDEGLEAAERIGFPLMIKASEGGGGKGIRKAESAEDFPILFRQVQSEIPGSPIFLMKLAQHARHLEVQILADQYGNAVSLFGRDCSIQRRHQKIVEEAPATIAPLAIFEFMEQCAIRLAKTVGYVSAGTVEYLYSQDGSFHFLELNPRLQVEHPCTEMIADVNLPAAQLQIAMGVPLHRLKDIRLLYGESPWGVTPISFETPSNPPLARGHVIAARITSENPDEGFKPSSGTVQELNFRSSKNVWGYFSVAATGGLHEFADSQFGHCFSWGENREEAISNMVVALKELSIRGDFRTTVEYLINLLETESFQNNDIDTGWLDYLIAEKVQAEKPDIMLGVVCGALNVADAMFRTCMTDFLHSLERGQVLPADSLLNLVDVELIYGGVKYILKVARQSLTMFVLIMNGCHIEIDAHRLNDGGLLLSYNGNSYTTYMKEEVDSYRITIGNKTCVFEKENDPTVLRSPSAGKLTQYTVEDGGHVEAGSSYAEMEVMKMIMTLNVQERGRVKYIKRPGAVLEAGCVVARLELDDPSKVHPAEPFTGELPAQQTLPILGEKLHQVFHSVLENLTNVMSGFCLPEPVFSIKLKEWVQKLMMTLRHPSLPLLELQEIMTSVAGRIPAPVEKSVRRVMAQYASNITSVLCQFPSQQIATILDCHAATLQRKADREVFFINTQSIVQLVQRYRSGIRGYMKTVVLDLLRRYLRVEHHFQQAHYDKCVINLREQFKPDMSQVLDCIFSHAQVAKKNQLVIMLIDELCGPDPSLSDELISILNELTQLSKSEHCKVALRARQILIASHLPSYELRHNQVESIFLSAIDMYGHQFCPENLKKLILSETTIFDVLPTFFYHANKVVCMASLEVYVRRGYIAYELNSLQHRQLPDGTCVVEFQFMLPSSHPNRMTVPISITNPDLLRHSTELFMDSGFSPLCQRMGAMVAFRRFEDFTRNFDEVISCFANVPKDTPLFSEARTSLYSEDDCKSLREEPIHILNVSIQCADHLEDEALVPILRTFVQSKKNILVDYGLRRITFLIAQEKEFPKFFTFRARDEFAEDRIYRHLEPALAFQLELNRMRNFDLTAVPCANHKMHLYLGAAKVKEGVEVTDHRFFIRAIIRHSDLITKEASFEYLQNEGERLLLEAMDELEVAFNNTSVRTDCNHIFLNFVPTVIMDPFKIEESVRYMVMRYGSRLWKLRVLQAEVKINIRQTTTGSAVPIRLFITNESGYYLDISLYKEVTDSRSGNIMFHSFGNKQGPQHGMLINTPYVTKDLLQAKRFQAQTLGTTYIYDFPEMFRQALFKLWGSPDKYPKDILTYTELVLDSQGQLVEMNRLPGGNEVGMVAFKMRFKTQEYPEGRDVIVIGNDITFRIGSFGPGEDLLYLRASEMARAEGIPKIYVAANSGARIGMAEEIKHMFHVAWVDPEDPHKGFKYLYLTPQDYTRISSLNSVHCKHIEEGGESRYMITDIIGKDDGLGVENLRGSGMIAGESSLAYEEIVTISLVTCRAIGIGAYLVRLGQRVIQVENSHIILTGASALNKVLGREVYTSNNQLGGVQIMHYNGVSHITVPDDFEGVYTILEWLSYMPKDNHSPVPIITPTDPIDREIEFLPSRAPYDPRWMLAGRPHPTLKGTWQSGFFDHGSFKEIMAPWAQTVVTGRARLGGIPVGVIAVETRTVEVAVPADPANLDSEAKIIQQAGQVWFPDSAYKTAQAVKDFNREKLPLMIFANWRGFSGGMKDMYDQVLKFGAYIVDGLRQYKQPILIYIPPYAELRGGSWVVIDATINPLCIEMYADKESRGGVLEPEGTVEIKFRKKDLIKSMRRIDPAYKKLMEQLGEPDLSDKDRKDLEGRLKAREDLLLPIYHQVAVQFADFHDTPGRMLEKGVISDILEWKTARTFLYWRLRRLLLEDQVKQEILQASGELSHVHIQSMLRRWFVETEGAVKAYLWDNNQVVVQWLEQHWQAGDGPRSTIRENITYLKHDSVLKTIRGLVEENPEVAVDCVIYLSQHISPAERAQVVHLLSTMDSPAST

Row | Structure (SMILES) | IC50 [1] | Effect on K0.5 of K-citrate [1] | Effect on Vmax of the ACC enzyme reaction [1] | Fold stimulation over palmitate oxidation rate in the absence of test compounds ([2]; HepG2, 10 μM) | Palmitate oxidation rate ([2]; HepG2, 10 μM) | Stimulation of palmitate / fatty acid oxidation (in words) [2] | Fold stimulation over palmitate oxidation rate in the absence of test compounds ([2]; HepG2, 25 μM) | Palmitate oxidation rate ([2]; HepG2, 25 μM) | other results
1 | CO[C@@H]1[C@@H](O)[C@H](C)[C@H]2OC1(O)[C@H](C)C(=O)O[C@H](c1ccccc1)CCCC[C@H](O)[C@H](O)/C=C/[C@@H]2C [Cpd (Ib), Soraphen A 4-α] | 200 nM | did not change | dose-dependent decrease | 2.8 fold | 10.8 +/− 0.4 pmol · h^−1 · well^−1 |  |  |  | Fold stimulation ([3]; L6, Table 2, 0.02 μM): 1.0 fold; Palmitate oxidation rate ([3]; L6, Table 2, 0.02 μM): 8.8 +/− 0.3 pmol · h^−1 · well^−1; Fold stimulation ([3]; L6, Table 2, 0.2 μM): 1.1 fold; Palmitate oxidation rate ([3]; L6, Table 2, 0.2 μM): 10.0 +/− 1.4 pmol · h^−1 · well^−1; Fold stimulation ([3]; L6, Table 2, 2 μM): 1.5 fold; Palmitate oxidation rate ([3]; L6, Table 2, 2 μM): 13.5 +/− 1.4 pmol · h^−1 · well^−1
2 | CC(Oc1ccc(Oc2ncc(C(F)(F)F)cc2Cl)cc1)C(=O)O (stereo not shown) [Haloxyfop, 2-[4-(3-chloro-5-trifluormethyl-2-pyridinyloxy)phenoxy] propionic acid] |  |  |  |  |  | did not stimulate | 1.0 fold | 3.6 +/− 0.4 pmol · h^−1 · well^−1 | 
3 | CO[C@H]1CC(O)CC[C@@H](c2ccccc2)OC(=O)[C@@H](C)C2(O)O[C@H]([C@@H](C)[C@H](O)[C@H]2OC)[C@@H](C)/C=C/[C@H]1O (stereo partly drawn) [Cpd (Ic), Soraphen B 2-α] | 1750 nM | did not change | dose-dependent decrease | 1.6 fold | 6.1 +/− 0.4 pmol · h^−1 · well^−1 |  |  |  | Fold stimulation ([4]; L6, Table 2, 0.02 μM): 0.9 fold; Palmitate oxidation rate ([4]; L6, Table 2, 0.02 μM): 8.2 +/− 0.5 pmol · h^−1 · well^−1; Fold stimulation ([4]; L6, Table 2, 0.2 μM): 1.0 fold; Palmitate oxidation rate ([4]; L6, Table 2, 0.2 μM): 8.8 +/− 0.5 pmol · h^−1 · well^−1; Fold stimulation ([4]; L6, Table 2, 2 μM): 1.1 fold; Palmitate oxidation rate ([4]; L6, Table 2, 2 μM): 10.2 +/− 1.3 pmol · h^−1 · well^−1
4 | CCCCCCCCCCCCCCOc1ccc(C(=O)O)o1 [TOFA, 5-(Tetradecyloxy)-2-furoic acid, reference compound] |  |  |  |  |  |  | 2.1 fold | 8.1 +/− 0.7 pmol · h^−1 · well^−1 | Fold stimulation ([4]; L6, Table 3, 0.25 μM): 1.1 fold; Palmitate oxidation rate ([4]; L6, Table 3, 0.25 μM): 5.8 +/− 0.4 pmol · h^−1 · well^−1; Fold stimulation ([4]; L6, Table 3, 2.5 μM): 1.5 fold; Palmitate oxidation rate ([4]; L6, Table 3, 2.5 μM): 8.0 +/− 0.7 pmol · h^−1 · well^−1; Fold stimulation ([4]; L6, Table 3, 25 μM): 1.3 fold; Palmitate oxidation rate ([4]; L6, Table 3, 25 μM): 7.2 +/− 0.3 pmol · h^−1 · well^−1; Maximal stimulation of palmitate oxidation ([4]; differentiated L6 cells, up to 25 μM): 1.5 fold
5 | CC(Oc1ccc(Oc2ccc(Cl)cc2Cl)cc1)C(=O)O (stereo not shown) [Diclofop, 2-[p-(2,4-Dichlorophenoxy)phenoxy]propionic acid] |  |  |  |  |  | did not stimulate | 0.8 fold | 3.1 +/− 1.3 pmol · h^−1 · well^−1 | 
6 | CCCC(=NOCC)C1=C(O)CC(C2CCCSC2)CC1=O (stereo not shown) [Cycloxidim, 2-(1-Ethoxyimino-butyl)-3-hydroxy-5-(tetrahydro-thiopyran-3-yl)-cyclohex-2-enone] |  |  |  |  |  | did not stimulate | 0.9 fold | 3.5 +/− 0.2 pmol · h^−1 · well^−1 | 
